Earlier results in US9066956B2, “Vaginal ring comprising DHEA or DHEA sulfate and optionally a release-modulating agent of the active principle, useful to increase the ovarian reserve in women and to relieve symptoms associated with menopause” (Universidad de Chile, priority 2011, dated 2015).
Like-named read-outs stand apart in the source and are kept apart here.

Assays:
[1] = test system: infertile women with diminished ovarian reserve; conditions: versus national U.S. IVF rates 2004
[2] = test system: women

Molecule	DHEA metabolized back to DHEA-S (by sulfatase hydroxysteroid)	Reduction of spontaneous abortions ([1]; first fertility center (U.S.))	Reduction of spontaneous abortions ([1]; second fertility center (Canada))	clinical pregnancies ([2]; oral DHEA 75 mg daily up to four months before IVF, control group 11%)	rate of spontaneous abortions ([2]; oral DHEA 75 mg daily, control group 36%)	increase of clinical pregnancy ([2]; oral DHEA versus control group)	daily production of DHEA-S converted to DHEA (women)
C[C@]12CC[C@H](O)CC1=CC[C@@H]1[C@@H]2CC[C@]2(C)C(=O)CC[C@@H]12 [DHEA, dehydroepiandrosterone]	13%	15.0%	15.2%	28%	20%	at least 150%	–
dehydroepiandrosterone sulphate [DHEA-S]	–	–	–	–	–	–	64%
